Tests used:
[1] = tested on: oxaliplatin induced peripheral neuropathy; assay: Reversal of allodynia induced by oxaliplatin in mice (von Frey frequency method); format: in vivo, c57bl/6 mice; settings: tested 30 min after dosing
Experimental: Compounds were tested for efficacy in mouse models of chemotherapy induced peripheral neuropathy. […] For these studies […]/6 mice are habituated to the test environment and baseline measurements of pain sensitivity are assessed. To determine mechanical responses, the threshold for responses to punctate mechanical stimuli (mechanical hyperalgesia) was tested according to the frequency method. In brief, the plantar surface of the animal hindpaw was stimulated with a single von Frey monofilament (0.4 g) for approximately 1-2 seconds. If there was a withdrawal response, it was recorded as a positive response. A response was defined as a lifting or shaking of the paw upon stimulation. This was repeated ten times for each mouse. The final measurement for each mouse is the % non-response to stimulation for the ten trials. The % non-response to stimulation is converted to a % MPE. For paclitaxel induced peripheral neuropathy, a series of injections of PAC (6 mg/kg, i.p.) on days 1, 3, 5 and 7 is used to induce peripheral neuropathy. After approximately 14 days from the initiation of PAC injections, animals are re-assessed for mechanical sensitivity. […] On test day animals are dosed with compounds either subcutaneously or orally and tested for mechanical response by the frequency method either 30 min (s.c.) or 60 min (p.o.) after drug administration. Data is presented as a % MPE. For oxaliplatin induced peripheral neuropathy, a series of injections of OXA (4 mg/kg, i.p.) on days 1-5 is used to induce peripheral neuropathy. After approximately 14 days from the initiation of PAC injections, animals are re-assessed for mechanical sensitivity. […] On test day animals are dosed with compounds subcutaneously and tested for mechanical response by the frequency method 30 min after drug administration. Data is presented as a % MPE. One or more of the compounds show reversal of chemotherapeutic induced peripheral neuropathy.

[2] = tested on: STZ-induced diabetic neuropathy; assay: Tactile allodynia and thermal hyperalgesia in streptozotocin-induced (STZ) diabetic neuropathy model; format: in vivo, Sprague Dawley rats; settings: for Active Doses in STZ Diabetic Neuropathy Model (mg/kg, po) (p < 0.05 compared to STZ + VEH treated mice) MECHANICAL: mechanical allodynia, manual von Frey; for Active Doses in STZ Diabetic Neuropathy Model (mg/kg, po) (p < 0.05 compared to STZ + VEH treated mice) THERMAL: thermal hyperalgesia, paw withdrawal latency
Experimental: A cohort of 48 male Sprague Dawley rats, weighing 225-250 g at arrival, was group housed under constant temperature, humidity and a 12-hour light-dark cycle. Following acclimation to the animal colony, the animals were tested for baseline withdrawal responses to mechanical allodynia and thermal hyperalgesia using the methods described below in Chaplan, S. R., Bach, […]., Chung, J. M. and Yaksh, T. L. Quantitative assessment of tactile allodynia in the rat paw. J. Neurosci. Methods 53: 55-63, 1994; Joris, J. L., Dubner, R. and Hargreaves, K. M. Opioid analgesia at Peripheral Sites: a Target for Opioids Released during Stress and Inflammation? Anesthesia and Analgesia 66(12), 1277-81, 1987; and Morrow, T. J. Animal Models of Painful Diabetic Neuropathy: The STZ rat model. Current Protocols in Neuroscience, November; Chapter 9, Unit 9.18, 2004.. […] Two days later (on Day 3), hyperglycermia was confirmed by existence of blood glucose >350 mg/dL as measured by glucometer, and the animal health was monitored biweekly for 12 days. For measures of mechanical allodynia, rats were preselected for experimentation only if the pain threshold 7-14 days after STZ injection (pre-treatment) was reduced by 10 grams of force relative to the response of the individual paw before STZ challenge (pre-induction), namely, with clear presence of allodynia. The rats were randomized based on pre-dose mechanical allodynia scores to balanced treatment groups. The animals were tested prior to study inclusion for mechanical allodynia by the manual von Frey test on Day 20 (Chaplan up/down method using von Frey filaments on the plantar surface of the paw). The manual von Frey test was repeated at 0.5 or 1 hr following administrations of test articles, vehicle, and reference compound via the specified route(s) and on Day 21 post-surgery. […] The rats were randomized based on pre-dose thermal hyperalgesia scores to balanced treatment groups. Rats were preselected (with clear presence of thermal hyperalgesia) on Day 20. Thermal hyperalgesia was measured at 1 or 1.5 hr after dosing of test articles, vehicle, and reference compound via the specified route(s) on Day 21. Each rat was placed within a plastic box atop a glass floor for 20 to 30 minutes. A light beam under the floor was aimed at the plantar surface of the left hind paw. The time was measured automatically when the paw was withdrawn away from the thermal stimulus. A cut-off latency of 23 sec was imposed. The latency to withdrawal was obtained for each rat and defined as the heat pain threshold. Mean thresholds and withdrawal latencies were analyzed via Two Way ANOVA followed by Dunnett's Multiple Comparison tests to STZ+VEH group with differences considered significant at p<0.05.

[3] = tested on: A2780 human ovarian carcinoma; assay: A2780 human ovarian carcinoma xenograft tumor growth delay in athymic nude mice; settings: 60-day study
Experimental: Female athymic nude mice (Crl:NU(NCr)-Foxnlnu, Charles River Laboratories) were implanted with A2780 human ovarian carcinoma cells to initiate tumor growth.
Each mouse received 1×10^7 cells (0.1 mL cell suspension) subcutaneously in the right flank, and tumors were monitored as their volumes approached the target range of 100 to 150 mm3. Fourteen days later, designated as Day 1 of the study, mice were sorted into six groups of ten each. […] Tumors were measured twice weekly for the study duration.
Starting on Day 1 of the study, six groups (n=10) of female athymic nude mice with established A2780 tumors were treated according to the following plan. Treatments were administered either by intravenous injection (i.v.) or oral gavage (p.o.) and were adjusted to the body weight of the individual animal. Group 1 received Vehicle 1, i.v., once every other day for five doses (qod×5) and Vehicle 2, p.o., once daily to the end of the study (qd to end), and served as the control group for efficacy analysis. Group 2, the paclitaxel monotherapy group, received paclitaxel i.v., qod×5 plus Vehicle 2, p.o., qd to end. Group 3, the ozanimod monotherapy group, received ozanimod p.o., qd to end plus Vehicle 1, i.v., qod×5. Combination Group 4 received ozanimod p.o., qd to end plus paclitaxel i.v., qod×5.
Animals were monitored individually, and each mouse was euthanized when its tumor reached the endpoint volume of 2000 mm3 or on the final day, whichever came first. The time to endpoint (TTE) was calculated for each mouse. Treatment outcome was determined from percent tumor growth delay (% TGD), defined as the percent increase in median TTE for treated versus control mice, with differences in TTE values between groups deemed statistically significant at P<0.05 using logrank survival analysis. Mice were also monitored for complete regression (CR) and partial regression (PR) responses. An animal with a CR at the end of the study was additionally classified as a tumor-free survivor (TFS). Treatment tolerability was assessed by body weight measurements and frequent observation for clinical signs of treatment-related side effects.

SMILES	Screen @ 3 mg/kg sc (% MPE) [1] [% MPE]	Active Doses in STZ Diabetic Neuropathy Model (mg/kg, po) (p < 0.05 compared to STZ + VEH treated mice) MECHANICAL [2] [mg/kg]	Active Doses in STZ Diabetic Neuropathy Model (mg/kg, po) (p < 0.05 compared to STZ + VEH treated mice) THERMAL [2] [mg/kg]	percent tumor growth delay (% TGD), monotherapy ([3]; monotherapy vs control, paclitaxel i.v. qod×5, ozanimod or Compound 103 p.o. qd to end) [%]	study survivors ([3]; n=10 per group, animals surviving the study)
COc1ccccc1-c1nc(-c2ccc3c(c2)nnn3C(C)C)no1 [Compound 287, 3-(1-isopropyl-1H-benzo[d][1,2,3]triazol-5-yl)-5-(2-methoxyphenyl)-1,2,4-oxadiazole]	>50				
Cc1ccccc1-c1noc(-c2ccc3c(c2)nnn3C(C)C)n1 [Compound 293, 5-[3-(2-methylphenyl)-1,2,4-oxadiazol-5-yl]-1-(propan-2-yl)-1H-1,2,3-benzotriazole]		<100	<100		
CCC1(CC)CC(=O)c2cc(-c3nc(-c4cn[nH]c4)no3)ccc2O1 [Compound 469, 6-(3-(1H-pyrazol-4-yl)-1,2,4-oxadiazol-5-yl)-2,2-diethylchroman-4-one]		<100	<100		
CCC1(CC)CC(=O)c2cc(-c3nc(-c4cccnc4)no3)ccc2O1 [Compound 103, 2,2-diethyl-6-[3-(pyridin-3-yl)-1,2,4-oxadiazol-5-yl]-3,4-dihydro-2H-1-benzopyran-4-one]		<100	<100	15	One

— patent publication US11912693B2, “Compounds for modulating S1P1 activity and methods of using the same” (TREVENA, INC., priority 2017, dated 2024)
